According to US11555012B2 (Nimbus Artemis, Inc., priority 2018, dated 2023):

Biological target: ACL (Homo sapiens (Human), UniProt P53396)
Assay: ADP-Glo Assay

ACL, sequence (P53396 other isoform, or with tags, fused parts or gaps isoform P53396-2): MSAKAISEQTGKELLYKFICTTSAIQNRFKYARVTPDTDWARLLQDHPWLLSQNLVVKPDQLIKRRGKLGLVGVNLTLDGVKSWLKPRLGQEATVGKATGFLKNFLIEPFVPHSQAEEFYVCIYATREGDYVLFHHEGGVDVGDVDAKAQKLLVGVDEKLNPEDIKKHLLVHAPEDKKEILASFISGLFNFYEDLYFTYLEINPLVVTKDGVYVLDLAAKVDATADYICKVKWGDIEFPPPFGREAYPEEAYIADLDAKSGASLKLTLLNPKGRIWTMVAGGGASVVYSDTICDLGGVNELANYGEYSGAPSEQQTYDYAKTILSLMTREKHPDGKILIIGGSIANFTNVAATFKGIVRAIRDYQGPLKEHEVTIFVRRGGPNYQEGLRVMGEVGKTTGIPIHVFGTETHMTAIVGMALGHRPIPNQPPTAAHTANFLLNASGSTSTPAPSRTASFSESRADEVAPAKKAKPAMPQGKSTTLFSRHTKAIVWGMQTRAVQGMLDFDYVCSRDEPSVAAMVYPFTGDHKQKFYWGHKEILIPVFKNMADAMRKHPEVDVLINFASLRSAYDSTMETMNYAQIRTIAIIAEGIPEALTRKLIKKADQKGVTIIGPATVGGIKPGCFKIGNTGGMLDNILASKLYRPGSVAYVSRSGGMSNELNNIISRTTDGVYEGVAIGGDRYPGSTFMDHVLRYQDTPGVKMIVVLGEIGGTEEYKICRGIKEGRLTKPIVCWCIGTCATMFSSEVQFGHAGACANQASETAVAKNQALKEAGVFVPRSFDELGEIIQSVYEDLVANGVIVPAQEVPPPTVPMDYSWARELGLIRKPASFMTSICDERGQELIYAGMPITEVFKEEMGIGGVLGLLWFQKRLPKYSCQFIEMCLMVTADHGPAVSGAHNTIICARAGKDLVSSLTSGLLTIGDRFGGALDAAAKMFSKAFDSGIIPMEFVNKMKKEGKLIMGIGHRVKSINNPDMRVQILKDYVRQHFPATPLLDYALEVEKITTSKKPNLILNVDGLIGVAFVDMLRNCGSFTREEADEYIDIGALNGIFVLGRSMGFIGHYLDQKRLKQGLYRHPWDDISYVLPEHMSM

Compound | IC50 [µM]
COc1ccc(N2CCCCC2)cc1NS(=O)(=O)c1cc(Cl)cc(Cl)c1O [I-10, 3,5-dichloro-2-hydroxy-N-(2-methoxy-5-(piperidin-1-yl)phenyl)benzenesulfonamide] | 0.5 to 20
O=S(=O)(Nc1cc(-c2ccccc2)ccc1O)c1cc(Cl)cc(Cl)c1 [I-224, 3,5-dichloro-N-(4-hydroxy-[1,1′-biphenyl]-3-yl)benzenesulfonamide] | 0.5 to 20
O=S(=O)(Nc1cc(-c2ccccc2)ccc1F)c1cc(Cl)c(O)cc1O [I-54, 5-chloro-N-(2-fluoro-5-phenylphenyl)-2,4-dihydroxybenzene-1-sulfonamide] | 0.5 to 20
COc1ccc(-c2ccccc2)cc1NS(=O)(=O)c1cc(-c2nn[nH]n2)cc(Cl)c1O [I-73, 3-chloro-2-hydroxy-N-(2-methoxy-5-phenylphenyl)-5-(2H-1,2,3,4-tetrazol-5-yl)benzene-1-sulfonamide] | 0.5 to 20
Nc1cc(-c2ccccc2)ccc1NS(=O)(=O)c1cc(Cl)cc(Br)c1O [I-57, N-(2-amino-4-phenylphenyl)-3-bromo-5-chloro-2-hydroxybenzene-1-sulfonamide] | 0.5 to 20
O=S(=O)(Nc1cc(-c2ccccc2)ccc1F)c1cc(Cl)ccc1O [I-30, 5-chloro-N-(2-fluoro-5-phenylphenyl)-2-hydroxybenzene-1-sulfonamide] | 0.5 to 20
COc1ccc(-c2ccccc2)cc1NS(=O)(=O)c1cc(CC(=O)O)cc(Cl)c1O [I-68, 2-[3-chloro-4-hydroxy-5-[(2-methoxy-5-phenylphenyl)sulfamoyl]phenyl]acetic Acid] | 0.5 to 20
O=S(=O)(Nc1cc(-c2ccccc2)c(F)cc1F)c1cccc(-c2nn[nH]n2)c1 [I-96, N-(2,4-difluoro-5-phenylphenyl)-3-(2H-1,2,3,4-tetrazol-5-yl)benzene-1-sulfonamide] | 0.5 to 20
O=S(=O)(Nc1cc(-c2ccccc2)ccc1F)c1cc(Cl)cc(Cl)c1OCC(F)(F)F [I-85, 3,5-dichloro-N-(2-fluoro-5-phenylphenyl)-2-(2,2,2-trifluoroethoxy)benzene-1-sulfonamide] | 0.5 to 20
COc1ccc(NC(=O)C2CC2)cc1NS(=O)(=O)c1cc(Cl)cc(Cl)c1O [I-8, N-(3-((3,5-dichloro-2-hydroxyphenyl)sulfonamido)-4-methoxyphenyl) cyclopropanecarboxamide] | 0.5 to 20
O=S(=O)(Nc1cc(-c2ccccc2)ccc1F)c1cc(Cl)cc(Cl)c1OC1COC1 [I-122, 3,5-dichloro-N-(4-fluoro-[1,1′-biphenyl]-3-yl)-2-(oxetan-3-yloxy)benzenesulfonamide] | 0.5 to 20
O=C(Nc1cc(C(=O)N2CCC2)cc(Cl)c1O)c1cc(-c2ccccc2)ccc1F [I-216, N-(5-(azetidine-1-carbonyl)-3-chloro-2-hydroxyphenyl)-4-fluoro-[1,1′-biphenyl]-3-carboxamide] | 0.5 to 20
O=C(Oc1c(Cl)cc(C(=O)N2CCC2)cc1S(=O)(=O)N(C(=O)C1CC1)c1cc(-c2ccccc2)c(F)cc1F)C1CC1 [I-217, 4-(azetidine-1-carbonyl)-2-chloro-6-[(1-cyclopropyl-N-[4,6-difluoro-[1,1-biphenyl]-3-yl]formamido)sulfonyl]phenylcyclopropanecarboxylate] | 0.5 to 20
CN(C)C(=O)c1cc(Cl)c(O)c(S(=O)(=O)Nc2cc(C3CC3)c(F)cc2F)c1 [I-231, 3-chloro-5-(N-(5-cyclopropyl-2,4-difluorophenyl)sulfamoyl)-4-hydroxy-N,N-dimethylbenzamide] | 0.5 to 20
NC(=O)Cc1ccc(-c2ccccc2)cc1NS(=O)(=O)c1cc(Cl)cc(Cl)c1 [I-245, 2-(3-((3,5-dichlorophenyl)sulfonamido)-[1,1′-biphenyl]-4-yl)acetamide] | 0.5 to 20
O=S(=O)(NCC1COc2ccccc2C1)c1cc(Cl)cc(Cl)c1O (centres unmarked) [I-185] | 0.5 to 20
O=S(=O)(Nc1cc(-c2ccccc2)c(F)cc1F)c1cc(Cl)cc(C(F)(F)F)c1 [I-204, 3-chloro-N-[4,6-difluoro-[1,1-biphenyl]-3-yl]-5-(trifluoromethyl)benzene-1-sulfonamide] | 0.5 to 20
CCC(=O)Oc1c(Cl)cc(C(=O)OC)cc1S(=O)(=O)Nc1cc(-c2ccccc2)ccc1F [I-120, Methyl 3-chloro-5-([4-fluoro-[1,1-biphenyl]-3-yl]sulfamoyl)-4-(propanoyloxy)benzoate] | 0.05 to 0.5
O=S(=O)(Nc1sccc1-c1ccccc1)c1cc(Cl)cc(Cl)c1O [I-89, 3,5-dichloro-2-hydroxy-N-(3-phenylthiophen-2-yl) benzenesulfonamide] | 0.5 to 20
O=S(=O)(Nc1cnn(-c2ccccc2)c1)c1cc(Cl)cc(Cl)c1O [I-170] | 0.5 to 20
O=C(O)c1cc(Cl)cc(S(=O)(=O)Nc2cc(-c3ccccc3)c(F)cc2F)c1 [I-147, 3-chloro-5-(N-(4,6-difluoro-[1,1′-biphenyl]-3-yl)sulfamoyl)benzoic Acid] | 0.5 to 20
O=S(=O)(N[C@H]1C[C@H](c2ccc(F)cc2)C1)c1cc(Cl)cc(Cl)c1O [I-167] | 0.5 to 20
O=C(O)COc1ccc(-c2ccccc2)cc1NS(=O)(=O)c1cc(F)cc(Cl)c1 [I-238, 2-((3-((3-chloro-5-fluorophenyl)sulfonamido)-[1,1′-biphenyl]-4-yl)oxy)acetic Acid] | 0.5 to 20
O=S(=O)(Nc1cc(-c2ccccc2)c(F)cc1F)c1ccccc1O [I-230, N-[4,6-difluoro-[1,1-biphenyl]-3-yl]-2-hydroxybenzene-1-sulfonamide] | 0.5 to 20
O=S(=O)(Nc1ccc(OCc2ccccc2)cc1)c1cc(Cl)cc(Cl)c1O [I-171] | 0.5 to 20
C=CCN(c1cc(-c2ccccc2)ccc1F)S(=O)(=O)c1cc(C(=O)OC)cc(Cl)c1O [I-108, Methyl 3-(N-allyl-N-(4-fluoro-[1,1′-biphenyl]-3-yl)sulfamoyl)-5-chloro-4-hydroxybenzoate] | 0.5 to 20
COC(=O)c1cc(Cl)c(OCC(=O)O)c(S(=O)(=O)Nc2cc(-c3ccccc3)ccc2F)c1 [I-114, 2-[2-chloro-6-([4-fluoro-[1,1-biphenyl]-3-yl]sulfamoyl)-4-(methoxycarbonyl)phenoxy]acetic Acid] | 0.5 to 20

Continued, values first:

IC50 [µM] | Compound
> 20 | COc1ccc(-c2ccccc2)cc1NS(=O)(=O)c1c(C)nn(C)c1Cl [I-400, 5-chloro-N-(4-methoxy-[1,1′-biphenyl]-3-yl)-1,3-dimethyl-1H-pyrazole-4-sulfonamide]
> 20 | COC(=O)c1cccc(S(=O)(=O)Nc2cc(-c3ccccc3)ccc2OC)c1 [I-421, methyl 3-(N-(4-methoxy-[1,1′-biphenyl]-3-yl)sulfamoyl)benzoate]
0.5 to 20 | O=S(=O)(Nc1cc(-n2nccn2)c(F)cc1F)c1cc(Cl)cc(Cl)c1O [I-290, 3,5-dichloro-N-[2,4-difluoro-5-(2H-1,2,3-triazol-2-yl)phenyl]-2-hydroxybenzene-1-sulfonamide]
> 20 | COc1ccc(-c2ccccc2)cc1NS(=O)(=O)c1cc(Cl)cc(Cl)c1F [I-394, 3,5-dichloro-2-fluoro-N-[4-methoxy-[1,1-biphenyl]-3-yl]benzene-1-sulfonamide]
0.5 to 20 | O=C(O)c1ccc(-c2ccccc2)cc1NS(=O)(=O)c1cc(Br)cs1 [I-319, 3-((4-bromothiophene)-2-sulfonamido)-[1,1′-biphenyl]-4-carboxylic acid]
> 20 | COc1ccc(Br)cc1S(=O)(=O)Nc1cc(-c2ccccc2)c(F)cc1F [I-380, 5-bromo-N-[4,6-difluoro-[1,1-bipheny1]-3-yl]-2-methoxybenzene-1-sulfonamide]
0.5 to 20 | O=C(O)c1cc(Cl)c(O)c(S(=O)(=O)Nc2ccccc2F)c1 [I-283, 3-chloro-5-[(2-fluorophenyl)sulfamoyl]-4-hydroxybenzoic acid]
> 20 | COc1ccc(-c2ccccc2)cc1NS(=O)(=O)c1cc(C(=O)O)ccc1Cl [I-438, 4-chloro-3-[(2-methoxy-5-phenylphenyl)sulfamoyl]benzoic acid]
0.5 to 20 | Cc1noc(C)c1S(=O)(=O)Nc1cc(-c2ccccc2)ccc1C(=O)O [I-351, 3-((3,5-dimethylisoxazole)-4-sulfonamido)-[1,1′-biphenyl]-4-carboxylic Acid]
> 20 | COc1ccc(-c2ccccc2)cc1N(C)S(=O)(=O)c1cc(C(=O)O)cc(Cl)c1O [I-426, 3-chloro-4-hydroxy-5-[(2-methoxy-5-phenylphenyl)(methyl)sulfamoyl]benzoic acid]
0.5 to 20 | O=C(O)c1ccc(-c2ccccc2)cc1NS(=O)(=O)c1cncc(Cl)c1 [I-247, 3-((5-chloropyridine)-3-sulfonamido)-[1,1′-biphenyl]-4-carboxylic Acid]
0.05 to 0.5 | O=C(O)c1cc(Cl)c(O)c(S(=O)(=O)Nc2cc(-c3cc4ccccc4s3)c(F)cc2F)c1 [I-507, 3-(N-(5-(benzo[b]thiophen-2-yl)-2,4-difluorophenyl)sulfamoyl)-5-chloro-4-hydroxybenzoic Acid]
0.5 to 20 | O=C(O)c1ccc(-c2ccccc2)cc1NS(=O)(=O)c1cccc(C(F)(F)F)c1 [I-292, 3-((3-(trifluoromethyl)phenyl)sulfonamido)-[1,1′-biphenyl]-4-carboxylic acid]
0.5 to 20 | O=C(O)c1ccc(-c2ccccc2)cc1NS(=O)(=O)c1ccc(C(F)(F)F)cc1 [I-353, 3-((4-(trifluoromethyl)phenyl)sulfonamido)-[1,1′-biphenyl]-4-carboxylic acid]
> 20 | COC(=O)c1cc(Cl)c(OC)c(S(=O)(=O)Nc2cc(-c3ccccc3)ccc2OC)c1 [I-428, Methyl 3-chloro-4-methoxy-5-(N-(4-methoxy-[1,1′-biphenyl]-3-yl)sulfamoyl)benzoate]
> 20 | COc1ccc(-c2ccccc2)cc1NS(=O)(=O)c1cccc(C#N)c1 [I-396, 3-cyano-N-(2-methoxy-5-phenylphenyl) benzene-1-sulfonamide]
> 20 | O=C(O)c1cc(Cl)c(O)c(S(=O)(=O)Nc2cc(-c3ccccc3)ccn2)c1 [I-536]
> 20 | N#Cc1cccc(S(=O)(=O)Nc2cc(-c3ccccc3)ccc2F)c1 [I-419, 3-cyano-N-(2-fluoro-5-phenylphenyl)benzene-1-sulfonamide]
> 20 | Cn1cc(Cl)cc(S(=O)(=O)Nc2cc(-c3ccccc3)ccc2F)c1=O [I-415, 5-chloro-N-(2-fluoro-5-phenylphenyl)-1-methyl-2-oxo-1,2-dihydropyridine-3-sulfonamide]
0.5 to 20 | O=C(O)c1ccc(-c2ccccc2)cc1NS(=O)(=O)Cc1ccccc1 [I-257]
